Literature values, collected in patent US6596714B1, “Parasiticidal formulation for animals and a method of making this formulation” (Phoenix Scientific, Inc., priority 2000, dated 2003).

System: cestode infestations

CN1CCCN=C1/C=C/c1cccs1 [pyrantel pamoate]
Effectiveness in treating cestode infestations (about three times the label recommended dosage, about 19.8 milligrams per kilogram of animal): about 100% | Average efficacy against cestode infestations (label dosage of about 6.6 milligrams per kilogram of animal, paste formulations, average): about 85%
